What all share (format): cell-based
The subject of assay [1] is Pseudocercosporella herpotrichoides var. acuformis. The experiment in a line: Fungal growth assay against Pseudocercosporella herpotrichoides var. acuformis (Example B-8). From the text:
(§1) A synergistic effect exists whenever the action of an active ingredient combination is greater than the sum of the actions of the individual components.
(§2) The action to be expected E for a given active ingredient combination obeys the so-called COLBY formula and can be calculated as follows (COLBY, S. R. “Calculating synergistic and antagonistic responses of herbicide combination”. Weeds, Vol. 15, pages 20-22; 1967):
(§3) ppm=milligrams of active ingredient (=a.i.) per liter of spray mixture X=% action by active ingredient A) using p ppm of active ingredient Y=% action by active ingredient B) using q ppm of active ingredient.
(§4) According to COLBY, the expected (additive) action of active ingredients A)+B) using p+q ppm of active ingredient is
(§5) If the action actually observed (O) is greater than the expected action (E), then the action of the combination is super-additive, i.e. there is a synergistic effect.
(§6) Conidia of the fungus from cryogenic storage are directly mixed into nutrient broth (PDB potato dextrose broth). After placing a (DMSO) solution of the test compounds into a microtiter plate (96-well format) the nutrient broth containing the fungal spores is added. The test plates are incubated at 24 C and the inhibition of growth is determined photometrically after 3 days. The fungicide interactions in the combinations are calculated according to the COLBY method. The data generated in this experiment indicate synergy between cyprodinil and boscalid, cyprodinil and dodine and cyprodinil and pyribencarb when used in mixture with one another.

For assay [2], the system named is Pyrenophora teres. In words: Fungal growth assay against Pyrenophora teres (Example B-5 a). The conditions noted are these: Cyprodinil/Pyribencarb series.
From the text: as §1, §2, §3, §4, §5
Conidia of the fungus from cryogenic storage are directly mixed into nutrient broth (PDB potato dextrose broth). After placing a (DMSO) solution of the test compounds into a microtiter plate (96-well format) the nutrient broth containing the fungal spores is added. […] The fungicide interactions in the combinations are calculated according to the COLBY method. The data generated in this experiment indicate synergy between cyprodinil and pyribencarb when used in mixture with one another.

The subject of assay [3] is Fusarium culmorum. The experiment in a line: Fungal growth assay against Fusarium culmorum (Example B-14).
From the text: as §1, §2, §3, §4, §5
as §6, with “2” for “3”, “dodine,” for “boscalid,”, “fluazinam” for “dodine”

The test system of assay [4] is Botrytis cinerea. In words: Fungal growth assay against Botrytis cinerea (Example B-1 a).
From the text: as §1, §2, §3, §4, §5
as §6, with “and” for “and boscalid, cyprodinil and”

The mark [5] stands for this setting: 0.125 mg/L alone, Cyprodinil/Boscalid series.
The mark [6] stands for this setting: 0.25 mg/L alone, Cyprodinil/Boscalid series.
The mark [7] stands for this setting: 0.5 mg/L alone, Cyprodinil/Boscalid series.
Setting [8] is: 4 mg/L alone, Cyprodinil/Dodine series.
Setting [9] is: 8 mg/L alone, Cyprodinil/Dodine series.
Where [10] appears, read: 16 mg/L alone, Cyprodinil/Dodine series.
[11] abbreviates: 0.125 mg/L alone, Cyprodinil/Pyribencarb series.
[12] abbreviates: 0.25 mg/L alone, Cyprodinil/Pyribencarb series.
Where [13] appears, read: 0.5 mg/L alone, Cyprodinil/Dodine series.
The mark [14] stands for this setting: 0.5 mg/L alone, Cyprodinil/Pyribencarb series.
The mark [15] stands for this setting: 1 mg/L alone, Cyprodinil/Dodine series.
[16] abbreviates: 1 mg/L alone, Cyprodinil/Pyribencarb series.
Setting [17] is: 2 mg/L alone, Cyprodinil/Dodine series.
[18] abbreviates: 2 mg/L alone, Cyprodinil/Pyribencarb series.
The mark [19] stands for this setting: 4 mg/L alone, Cyprodinil/Pyribencarb series.
Setting [20] is: 0.125 mg/L alone, Cyprodinil/Dodine series.
The mark [21] stands for this setting: 0.25 mg/L alone, Cyprodinil/Dodine series.
Setting [22] is: 0.008 mg/L alone, Cyprodinil/Pyribencarb series.
Setting [23] is: 0.016 mg/L alone, Cyprodinil/Pyribencarb series.
The mark [24] stands for this setting: 0.031 mg/L alone, Cyprodinil/Pyribencarb series.

On to `O=C(Nc1ccccc1-c1ccc(Cl)cc1)c1cccnc1Cl` [Boscalid], for which the “Observed control in % (% Cobs)” value in assay [1] (0.031 mg/L alone, Cyprodinil/Boscalid series) came out at 0%; in assay [1] (0.063 mg/L alone, Cyprodinil/Boscalid series), 2.5%; in assay [1] (setting [5]) it was 32.8%; in assay [1] (setting [6]), 58.4%; in assay [1] (setting [7]), 77.1%.

For `Cc1cc(C2CC2)nc(Nc2ccccc2)n1` [Cyprodinil, (4-cyclopropyl-6-methyl-pyrimidin-2-yl)-phenyl-amine], the “Observed control in % (% Cobs)” value in assay [2] (0.25 mg/L alone) is listed as 52.0%; in assay [2] (0.5 mg/L alone), 59.0%; in assay [3] (2 mg/L alone, Cyprodinil/Fluazinam series), 0%; in assay [3] (setting [8]), 0%; in assay [3] (4 mg/L alone, Cyprodinil/Fluazinam series), 0%; in assay [3] (setting [9]), 0%. In addition, the “Observed control in % (% Cobs)” value in assay [3] (8 mg/L alone, Cyprodinil/Fluazinam series) came out at 0%; in assay [3] (8 mg/L alone, Cyprodinil/Pyribencarb series), 2.4%; in assay [3] (setting [10]) it was 6.7%; in assay [3] (16 mg/L alone, Cyprodinil/Fluazinam series) it was 9.8%; in assay [3] (16 mg/L alone, Cyprodinil/Pyribencarb series), 8.4%; in assay [3] (32 mg/L alone, Cyprodinil/Dodine series), 26.9%. Further, the “Observed control in % (% Cobs)” value in assay [3] (32 mg/L alone, Cyprodinil/Fluazinam series) is 16.4%; in assay [3] (32 mg/L alone, Cyprodinil/Pyribencarb series), 21.7%; in assay [4] (setting [11]), 16.7%; in assay [4] (setting [12]) it was 22.6%; in assay [4] (setting [13]), 26.7%; in assay [4] (setting [14]), 21.4%. Moreover, the “Observed control in % (% Cobs)” value in assay [4] (setting [15]) turned out to be 38.2%; in assay [4] (setting [16]) it was 25.7%; in assay [4] (setting [17]), 50.5%; in assay [4] (setting [18]), 23.2%; in assay [4] (setting [8]), 40.1%; in assay [4] (setting [19]) it was 37.1%. The “Observed control in % (% Cobs)” value in assay [4] (setting [9]) was 51.8%; in assay [1] (0.0625 mg/L alone, Cyprodinil/Boscalid series), 23.5%; in assay [1] (setting [5]), 40.7%; in assay [1] (setting [20]), 10.9%; in assay [1] (setting [11]), 16.6%; in assay [1] (setting [6]) it was 28.9%. Besides, the “Observed control in % (% Cobs)” value worked out at 14.8% in assay [1] (setting [21]); 19.6% in assay [1] (setting [7]); 13.7% in assay [1] (setting [13]); 30.1% in assay [1] (setting [14]); 17.5% in assay [1] (1 mg/L alone, Cyprodinil/Boscalid series); 17.9% in assay [1] (setting [15]). Besides, the “Observed control in % (% Cobs)” value turned out to be 19.3% in assay [1] (setting [16]); 24.6% in assay [1] (2 mg/L alone, Cyprodinil/Boscalid series); 20.3% in assay [1] (setting [17]); 21.5% in assay [1] (setting [18]); 33.6% in assay [1] (4 mg/L alone, Cyprodinil/Boscalid series); 25.9% in assay [1] (setting [8]). In addition, the results for the “Observed control in % (% Cobs)” value in assay [1] (setting [19]), in assay [1] (setting [9]) and in assay [1] (setting [10]) were 27.2%, 33.6% and 46.2%, respectively.

Turning to `CCCCCCCCCCCCNC(=N)N` [Dodine], the “Observed control in % (% Cobs)” value in assay [3] (setting [9]) is 3.3%; in assay [3] (setting [10]), 15.1%; in assay [4] (setting [8]), 0%; in assay [4] (setting [9]), 0%; in assay [4] (setting [10]), 36.3%; in assay [1] (setting [20]), 0%. For the same compound, the “Observed control in % (% Cobs)” value is 0% in assay [1] (setting [21]); 0% in assay [1] (setting [13]); 0% in assay [1] (setting [15]); 1.4% in assay [1] (setting [17]); 31.3% in assay [1] (setting [8]); 70.5% in assay [1] (setting [9]). For the same compound, the “Observed control in % (% Cobs)” value in assay [1] (setting [10]) is given as 72.4%.

`O=[N+]([O-])c1cc(C(F)(F)F)c(Cl)c([N+](=O)[O-])c1Nc1ncc(C(F)(F)F)cc1Cl` [Fluazinam]: the “Observed control in % (% Cobs)” value worked out at 5.1% in assay [3] (0.063 mg/L alone, Cyprodinil/Fluazinam series); 11.8% in assay [3] (0.125 mg/L alone, Cyprodinil/Fluazinam series); 27.4% in assay [3] (0.25 mg/L alone, Cyprodinil/Fluazinam series); 35.7% in assay [3] (0.5 mg/L alone, Cyprodinil/Fluazinam series); 72.4% in assay [3] (1 mg/L alone, Cyprodinil/Fluazinam series).

In the case of `COC(=O)NCc1cc(/C(C)=N/OCc2cccc(C)n2)ccc1Cl` [Pyribencarb], the “Observed control in % (% Cobs)” value amounted to 0% in assay [2] (0.004 mg/L alone); 0% in assay [2] (0.008 mg/L alone); 0% in assay [2] (0.016 mg/L alone); 0% in assay [2] (0.031 mg/L alone); 17.0% in assay [2] (0.063 mg/L alone); 0% in assay [3] (setting [11]). Besides, the “Observed control in % (% Cobs)” value is 8.7% in assay [3] (setting [12]); 11.5% in assay [3] (setting [14]); 16.2% in assay [3] (setting [16]); 0.4% in assay [4] (setting [22]); 0% in assay [4] (setting [23]); 3.3% in assay [4] (setting [24]). Besides, the “Observed control in % (% Cobs)” value in assay [4] (0.063 mg/L alone, Cyprodinil/Pyribencarb series) amounted to 2.6%; in assay [4] (setting [11]), 16.4%; in assay [1] (setting [22]), 16.2%; in assay [1] (setting [23]) it was 40.1%; in assay [1] (setting [24]) it was 61.1%.

The values above are taken from patent US20140024667A1, “FUNGICIDAL COMPOSITIONS” (SYNGENTA CROP PROTECTION LLC, priority 2005, published 2014).
